Laboratory results published in US20190060298A1, “NEW DRUG FOR THE TREATMENT AND/OR PREVENTION OF DEPRESSIVE DISORDERS” (SORBONNE UNIVERSITE, priority 2013, published 2019).
“Also recorded” adds a separate entry of the source.

Columns and labels:
Nrf2 [1] = test: Nrf2 translocation in hippocampal HT22 cells; assay type: cell-based; conditions: 30 min, quercetin 10 μM; for nuclear Nrf2 translocation: BDNF 100 ng/ml, 7,8-DHF 10 μM
Experimental: (§1) Hippocampi were homogenized in ice-cold buffer A (10 mM Hepes, 150 mM NaCl, 1 mM EDTA, protease inhibitor cocktail [5 μl/ml] and phosphatase inhibitor cocktail [10 μl/ml]) and Nonidet P-40 (0.5%) was then added. After 10 min on ice, homogenates were centrifuged (1,200×g, 10 min, 4° C.). Supernatants were saved as the cytoplasmic fraction. Pellets were washed in ice-cold buffer A and sedimented by centrifugation at 1,200×g for 10 min at 4° C. Nuclear yield and integrity were checked by Giemsa staining and microscopy. Nuclei were resuspended in ice-cold buffer B (20 mM Hepes, 420 mM NaCl, 1.2 mM MgCl2, 0.2 mM EDTA, 25% glycerol, 0.5 mM DTT, protease inhibitor cocktail [5 μl/ml] and phosphatase inhibitor cocktail [10 μl/ml]). Samples were sonicated (15 s, 4° C.) and vortexed every 5 min for 20 min. The cytoplasmic and nuclear fractions were centrifuged at 20,000×g, for 30 min at 4° C. Supernatants were rapidly frozen in liquid nitrogen and stored at −80° C. A similar protocol was used for cell nuclear and cytosolic extracts.
40 μg of nuclear or cytosolic protein (or 20 μg for cell experiments) was resolved by SDS-polyacrylamide gel electrophoresis in a 12% polyacrylamide gel. The bands were transferred to nitrocellulose or PVDF membranes (Invitrogen, France) for immunoblotting according to standard procedures. We used the following antibody dilutions: 1:250 for rabbit polyclonal antibodies against Nrf2 (Santa Cruz Biotechnology, France), 1:500 for rabbit polyclonal antibodies against Keap1 (Santa Cruz Biotechnology) and 1:5000 for rabbit polyclonal antibodies against aconitase 2 (Gene Tex, France). A dilution of 1:10,000 was used for the fluorescent IRDye® 800CW secondary antibody (ScienceTec, Paris, France). Membranes were also probed with a mouse monoclonal antibody against GAPDH or a mouse monoclonal antibody against beta-actin (dilutions of 1:10,000 and 1:1,000, respectively, Sigma-Aldrich, France) and with the IRDye® 680CW secondary antibody from ScienceTec (1:10,000), to correct for protein loading. Images were acquired with the Odyssey® infrared imaging system (LI-COR Biosciences). Protein bands were quantified with Odyssey® software (version 3.0, LI-COR Biosciences). For SOD1, Prx2 and PrxSO2/SO3 analysis, we used the following antibody dilutions: 1:1000 for rabbit polyclonal antibodies against SOD (Euromedex), 1:2000 for rabbit polyclonal antibodies against PeroxiredoxinSO2/SO3 (Abcam), 1:1000 for rabbit polyclonal antibodies against Peroxiredoxin2 (Abcam). Horseradish peroxidase-conjugated secondary antibodies were used and membranes were developed with the ECL Plus detection reagent (Pierce, Rockford, Ill.). Images were acquired with a digital camera-based imaging system (ChemiDoc, Biorad) and analyzed with Quantity One software (Bio-Rad). […]

Keap1 [2] = test: Keap1 levels in hippocampal HT22 cells; assay type: cell-based; conditions: 30 min, BDNF 100 ng/ml or 7,8-DHF 10 μM
Experimental: as §1, with “A similar protocol was used for cell nuclear and cytosolic extracts.” left out
(§2) 40 μg of nuclear or cytosolic protein (or 20 μg for cell experiments) was resolved by SDS-polyacrylamide gel electrophoresis in a 12% polyacrylamide gel. […] Protein bands were quantified with Odyssey® software (version 3.0, LI-COR Biosciences). […] Images were acquired with a digital camera-based imaging system (ChemiDoc, Biorad) and analyzed with Quantity One software (Bio-Rad). […]

Nrf2 [3] = test: Superfusion of the hippocampus, Nrf2 levels; design: species or system Sprague-Dawley rats; conditions: 7,8-DHF 10 μM, 1 h; for cytosolic Nrf2 concentration: perfused hippocampi
Experimental: as §1
40 μg of nuclear or cytosolic protein (or 20 μg for cell experiments) was resolved by SDS-polyacrylamide gel electrophoresis in a 12% polyacrylamide gel. The bands were transferred to nitrocellulose or PVDF membranes (Invitrogen, France) for immunoblotting according to standard procedures. We used the following antibody dilutions: 1:250 for rabbit polyclonal antibodies against Nrf2 (Santa Cruz Biotechnology, France), 1:500 for rabbit polyclonal antibodies against Keap1 (Santa Cruz Biotechnology) and 1:5000 for rabbit polyclonal antibodies against aconitase 2 (Gene Tex, France). A dilution of 1:10,000 was used for the fluorescent IRDye® 800CW secondary antibody (ScienceTec, Paris, France). […] Protein bands were quantified with Odyssey® software (version 3.0, LI-COR Biosciences). […] Images were acquired with a digital camera-based imaging system (ChemiDoc, Biorad) and analyzed with Quantity One software (Bio-Rad). […]

Keap1 [4] = test: Superfusion of the hippocampus, Keap1 levels; design: species or system Sprague-Dawley rats; conditions: perfused hippocampi of DF and control rats; 7,8-DHF 10 μM, 1 h
Experimental: as §1, with “A similar protocol was used for cell nuclear and cytosolic extracts.” left out
as §2

[5] = intracerebroventricular administration; cited from earlier work
[6] = test system: patients suffering of bipolar depression; conditions: cited from earlier work

Molecule: O=c1cc(-c2ccccc2)oc2c(O)c(O)ccc12 [7,8-DHF, 7,8-dihydroxyflavone]
- nuclear Nrf2 translocation (Nrf2 [1]): induced a marked increase; also recorded: produced similar effects on Nrf2
- Keap1 levels (Keap1 [2]): not affected
- nuclear Nrf2 translocation (Nrf2 [3]; perfused hippocampi of defeated (DF, D5) and control rats): induced a marked translocation of Nrf2 to the nuclear compartment; also recorded: induced Nrf2 translocation to the nucleus to the same level in defeated and control animals
- cytosolic Nrf2 concentration (Nrf2 [3]; DF animals (D5)): induced a decrease in cytosolic Nrf2 concentration; also recorded: decrease in cytosolic Nrf2 levels
- cytosolic Nrf2 concentration (Nrf2 [3]; control (C) animals): tendency for this concentration to decrease
- Keap1 concentration (Keap1 [4]): no change in Keap1 concentration
- neuroanatomical alterations (hippocampal CA3 dendritic retraction, increase of amygdala dendritic length) [5]: can prevent neuroanatomical alterations
- occurrence of depressive profile [5]: prevent

Molecule: CC(=O)N[C@@H](CS)C(=O)O [N-acetylcysteine (NAC), N-acetylcysteine]
- depression scores [6]: induced a robust decrement in depression scores

Molecule: O=c1c(O)c(-c2ccc(O)c(O)c2)oc2cc(O)cc(O)c12 [quercetin]
- nuclear Nrf2 translocation (Nrf2 [1]): induces a translocation of Nrf2 to the nucleus
- Nrf2 cytosolic fraction (Nrf2 [1]): decreased

B1: BDNF: brain derived neurotrophic factor, added to HT22 cell medium at 100 ng/ml (protein, UniProt P23560 19-247, looked up)
Neurotrophic factor BDNF …: APMKEANIRGQGGLAYPGVRTHGTLESVNGPKAGSRGLTSLADTFEHVIEELLDEDQKVRPNEENNKDADLYTSRVMLSSQVPLEPPLLFLLEEYKNYLDAANMSMRVRRHSDPARRGELSVCDSISEWVTAADKKTAVDMSGGTVTVLEKVPVSKGQLKQYFYETKCNPMGYTKEGCRGIDKRHWNSQCRTTQSYVRALTMDSKKRIGWRFIRIDTSCVCTLTIKRGR
- nuclear Nrf2 translocation (Nrf2 [1]): induced a marked increase; also recorded: produced similar effects on Nrf2
- Keap1 levels (Keap1 [2]): not affected
